Results as given in article PMC9271885 (eBioMedicine, 2022).
Several values for one entry are separate records, joined by “and”; a condition that tells them apart may be missing. Equal values may be shown once.

Columns and labels:
[1] = tested on: SARS-CoV-2; test: Hamster model of SARS-CoV-2 infection, oral NTZ treatment (lung infectious titers, lung viral RNA yields, plasma viral loads); assay type: in vivo, Syrian hamsters; parameters: Lung Infectious titers / Plasmatic viral RNA yields / Lung Viral RNA yields: unit not given here
[2] = Clinical course of the disease in infected hamsters (normalized weight, clinical signs); assay type: in vivo, Syrian hamsters; settings: Favipiravir IP 926mg/kg/day BID, inoculum 104 TCID50, sacrifice day 3, Figure 3, individual animals
Description: Three-week-old female Syrian hamsters were provided by Janvier Labs (SPF status). Animals were maintained in ISOcage P - Bioexclusion System (Techniplast) with unlimited access to water/food and 14h/10h light/dark cycle. A wooden gnawing block and extra bedding material was provided as cage enrichment. Animals were weighed and monitored daily for the duration of the study to detect the appearance of any clinical signs of illness/suffering. General anesthesia was obtained with isoflurane (Isoflurin®, Axience). Euthanasia, which was also realized under general anesthesia, was performed by cervical dislocation.
Groups of 6 hamsters were intranasally infected with 10^4 TCID50 of virus. a Experimental timeline. b, f, j Viral replication in lung based on infectious titers (measured using a TCID50 assay) expressed in TCID50/g of lung (n=6 animals/group). c, g, k Viral replication in lung based on viral RNA yields (measured using an RT-qPCR assay) expressed in viral genome copies/g of lung (n=6 animals/group). d, h, l Plasma viral loads (measured using an RT-qPCR assay) are expressed in viral genome copies/mL of plasma (the dotted line indicates the detection threshold of the assay) (n=6 animals/group). e, i, m Clinical course of the disease (n=6 animals/group). Normalized weight at day n was calculated as follows: % of initial weight of the animal at day n. Data represent mean ± SD (Details in Supplementary Data 2).

[3] = FVP 926mg/kg/day BID intraperitoneally, 3 dpi
[4] = Favipiravir IP 926mg/kg/day BID, inoculum 104 TCID50, sacrifice day 3, Figure 3, individual animals, 926 mg/kg/day

For NC(=O)c1nc(F)c[nH]c1=O [FVP, favipiravir], the “infectious titers in clarified lung homogenates vs untreated animals” value [1, 3] was “significant reductions”, the “viral RNA yields in clarified lung homogenates vs untreated animals” value [1, 3] was “significant reductions” and the “Lung Infectious titers” value [1, 4] was 6.755 and 6.354 and 7.035 and 6.515 and 6.109 and 6.625. The “Lung Viral RNA yields” value [1, 4] was 6.542 and 6.443 and 6.907 and 6.536 and 6.197 and 6.702, the “Plasmatic viral RNA yields” value ([1]; Favipiravir IP 926mg/kg/day BID, inoculum 104 TCID50, sacrifice day 3, Figure 3, individual animals, ¤ : Detection threshold at 1000 cp/ml, 926 mg/kg/day) was 3.034 and 2.169 and 2.511 and 5.618 and the “Normalized weights Day 0” value [2] was 100. For the same compound, the “Normalized weights Day 1” value ([2]; 926 mg/kg/day) was 104.7 and 102.8 and 102.5 and 104.5 and 103.7 and 104.9, the “Normalized weights Day 2” value ([2]; 926 mg/kg/day) was 101.3 and 102.5 and 100.8 and 100.6 and 94.2 and 104.4 and the “Normalized weights Day 3” value ([2]; 926 mg/kg/day) was 97.1 and 105.0 and 92.2 and 91.0 and 105.5 and 105.7.
